Assay results as given in patent US20070196816A1, “Engineered stimulus-responsive switches” (priority 2000, published 2007).

Tests used:
lambda phage = test: Immunity experiments: plaque formation on lambda phage infection of LE392 cells containing engineered repressors, with and without taxol; assay type: cell-based; conditions: 30° C., scored at 24 and 48 hours
Description: There are multiple ways to evaluate lambda repressor function. One such method exploits the central role of the repressor in controlling the decision of lambda phage to enter the lytic or the lysogenic phase. In the presence of a high concentration of functional cI in the bacterial cell, entering lambda phage are pushed into the lysogenic phase. In the absence of cI, bacteria are susceptible to infection by lambda phage: the lysed cells manifest as plaques on a bacterial lawn. The level of functional cI in a cell determines whether incoming phage will continue to enter the lytic cycle or choose the lysogenic cycle, when the phage is integrated into the host genome. Cells with functional cI can thus display immunity to phage superinfection. In addition it is also possible to conduct in vitro experiments, such as electrophoretic mobility shift assays where binding of purified protein to labeled oligonucleotide duplexes can be monitored.
The repressors were placed under the control of a constitutive promoter (tet promoter) in a pUNI (Invitrogen) donor vector. […]
Five sets of experiments have been done with each of the cI-bZIP, TBD-cI-bZIP, and TBD-ΔK-cI-bZIP constructs. […] Plaque phenotype was scored at 24 and 48 hours of incubation at 30° C. The number of plaques was counted for three experiments using 3-5 replicates for each set.

GST-Bcl2 = GST-Bcl2 (Homo sapiens, UniProt P10415); conditions: specific binding; Rodi et al.; cited from earlier work
Sequence of GST-Bcl2 (P10415 whole entry): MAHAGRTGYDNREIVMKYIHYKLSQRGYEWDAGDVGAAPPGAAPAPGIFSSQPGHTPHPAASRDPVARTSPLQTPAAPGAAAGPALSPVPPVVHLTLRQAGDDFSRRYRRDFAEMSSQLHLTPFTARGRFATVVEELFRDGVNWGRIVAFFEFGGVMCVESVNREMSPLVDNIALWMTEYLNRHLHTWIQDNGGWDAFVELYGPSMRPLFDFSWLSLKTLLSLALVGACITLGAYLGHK

Row | Molecule | Change of plaque phenotype/size on addition of taxol (lambda phage; 100 uM taxol in culture and top agar) | Plaque phenotype (size) on infection with lambda phage (lambda phage; LE392 cells containing the repressor, absence of taxol) | Kd of taxol binding to GST-Bcl2 (GST-Bcl2)
1 | cI-bZIP: chimeric repressor: DNA binding domain and linker of lambda repressor (cI aa 1-132) fused to GCN4 leucine zipper; SEQ ID NO: 12 | not changed | miniscule plaques barely visible to the eye | –
2 | CC(=O)O[C@H]1C(=O)[C@@]2(C)[C@H]([C@H](OC(=O)c3ccccc3)[C@]3(O)C[C@H](OC(=O)[C@H](O)[C@@H](NC(=O)c4ccccc4)c4ccccc4)C(C)=C1C3(C)C)[C@]1(OC(C)=O)CO[C@@H]1C[C@@H]2O [taxol] | – | – | nanomolar range
